Experiments:
[1] = Glucuronidation in pooled human kidney microsomes; format: in vitro ADME; conditions: kidney microsomes 1 mg protein/mL, 10 μmol/L, 60 minutes, n = 1
Procedure: Ataluren at 10 μmol/L, was incubated (n = 1) with pooled human intestinal, lung, and kidney microsomes (1 mg protein/mL, preactivated with alamethicin) to evaluate if ataluren‐O‐1β‐acyl glucuronide will be formed in these extrahepatic tissues. Incubation mixtures and procedures were essentially the same as the above. The supernatant fractions were analyzed by LC‐MS/MS to quantify the formation of ataluren‐O‐1β‐acyl glucuronide and the loss of ataluren. Detailed LC‐MS/MS conditions are summarized in LC‐MS/MS Analysis section. […] The ataluren acyl glucuronide formation rate after 60 minutes incubation was calculated using the amount of metabolite formed (pmol) divided by the protein amount in the incubation sample ([…]) and the incubation time (60 minutes).
Quantification of ataluren loss and ataluren‐O‐1β‐acyl glucuronide formation was carried out with an LC‐MS/MS system, which consisted of two Shimadzu LC‐10ADvp pumps, a SPD10‐AVP UV/Vis detector, a Shimadzu SILHTA autosampler, a Shimadzu DGU‐14A degasser, and a Sciex API 4000 QTRAP mass spectrometer equipped with a Turbo Ionspray ionization source that operated in positive ionization mode. […] Ion transitions monitored were at m/z 285 → m/z 123 for ataluren, m/z 461 → m/z 285 for ataluren acyl glucuronide, and m/z 289 → m/z 127 for ataluren‐D4 (internal standard), respectively.

[2] = system: CYP2B6; test: CYP induction in primary human hepatocytes: CYP2B6; format: in vitro ADME; conditions: Bupropion-hydroxylase, 48 hours, n=3
Procedure: Human hepatocytes isolated from three Caucasian males were transferred to 48‐well collagen‐coated plates at 0.14 × 10^6 cells/well in planting media for attachment. After attachment, planting media was replaced with sandwich media and the cells were incubated until clusters were established. […] The incubation solutions were aspirated and replaced with freshly prepared incubation solutions containing ataluren for an additional 24 hours. […] The incubation solutions were then aspirated and 150 µL of K‐H buffer containing CYP substrates were added. The hepatocytes were incubated for 30 minutes for CYP2C8 (10 µmol/L amodiaquine), 1 hour for CYP3A4 (125 µmol/L testosterone), and 4 hours for CYPs 1A2 (100 µmol/L phenacetin), 2A6 (100 µmol/L coumarin), 2B6 (150 µmol/L bupropion), 2C9 (50 µmol/L tolbutamide), 2C19 (100 µmol/L S‐mephenytoin), and 2E1 (300 µmol/L chlorzoxazone) activity assays. The reactions were stopped by the addition of 0.15 mL of ice‐cold methanol except that coumarin‐treated cells were incubated with β‐glucuronidase and aryl sulfatase for additional 1 hour to free 7‐hydroxycoumarin before the addition of 0.2 mL of ice‐cold methanol. Metabolite formation in incubations with test compounds and control inhibitors was assessed with validated LC‐MS/MS methods for each of the reaction products as described in Table S2. Enzymatic activity for each CYP was calculated using the absolute amount of metabolite formed (pmol) divided by hepatocytes in the incubation (million cells) and the incubation time (minute). The relative fold induction in enzymatic activity was calculated by comparing the rate of metabolite formation for treatment groups to that of the solvent control group (reported as vehicle control%) or positive control group (reported as positive control%).

Compound: O=C(O)c1cccc(-c2noc(-c3ccccc3F)n2)c1 [ataluren, Ataluren]
- ataluren loss [1]: 94.3%
- Positive control %, Mean ([2]; ataluren 4 µM): 2.81%
- Vehicle control %, Mean ([2]; ataluren 4 µM): 111%
- Positive control %, Mean ([2]; ataluren 40 µM): 6.27%
- Vehicle control %, Mean ([2]; ataluren 40 µM): 123%
- Positive control %, Mean ([2]; ataluren 400 µM): 19.8%
- Vehicle control %, Mean ([2]; ataluren 400 µM): 170%

— publication PMC7083565, “In vitro metabolism, reaction phenotyping, enzyme kinetics, CYP inhibition and induction potential of ataluren” (Pharmacology Research & Perspectives, 2020)
